Patent US8394971B2, “Indole derivatives as selective androgen receptor modulators (SARMS)” (Janssen Pharmaceutica N.V., priority 2004, dated 2013)
Values joined by “and” are separate entries in the source; they are usually repeats but may differ in a detail not shown here. Equal entries are not always repeated. Where two headings read alike, the source gives them in different places.

Columns and labels:
[1] = molecular target: T1, androgen receptor (rat ventral prostate cytosol) (Rattus norvegicus, UniProt P15207); experiment: Androgen Receptor Binding Using Rat Ventral Prostate Cytosol
T1 construct: from tissue; host or cells: ventral prostate of castrated male Sprague Dawley or Wistar rats, cytosol
T1 sequence (P15207 1-902): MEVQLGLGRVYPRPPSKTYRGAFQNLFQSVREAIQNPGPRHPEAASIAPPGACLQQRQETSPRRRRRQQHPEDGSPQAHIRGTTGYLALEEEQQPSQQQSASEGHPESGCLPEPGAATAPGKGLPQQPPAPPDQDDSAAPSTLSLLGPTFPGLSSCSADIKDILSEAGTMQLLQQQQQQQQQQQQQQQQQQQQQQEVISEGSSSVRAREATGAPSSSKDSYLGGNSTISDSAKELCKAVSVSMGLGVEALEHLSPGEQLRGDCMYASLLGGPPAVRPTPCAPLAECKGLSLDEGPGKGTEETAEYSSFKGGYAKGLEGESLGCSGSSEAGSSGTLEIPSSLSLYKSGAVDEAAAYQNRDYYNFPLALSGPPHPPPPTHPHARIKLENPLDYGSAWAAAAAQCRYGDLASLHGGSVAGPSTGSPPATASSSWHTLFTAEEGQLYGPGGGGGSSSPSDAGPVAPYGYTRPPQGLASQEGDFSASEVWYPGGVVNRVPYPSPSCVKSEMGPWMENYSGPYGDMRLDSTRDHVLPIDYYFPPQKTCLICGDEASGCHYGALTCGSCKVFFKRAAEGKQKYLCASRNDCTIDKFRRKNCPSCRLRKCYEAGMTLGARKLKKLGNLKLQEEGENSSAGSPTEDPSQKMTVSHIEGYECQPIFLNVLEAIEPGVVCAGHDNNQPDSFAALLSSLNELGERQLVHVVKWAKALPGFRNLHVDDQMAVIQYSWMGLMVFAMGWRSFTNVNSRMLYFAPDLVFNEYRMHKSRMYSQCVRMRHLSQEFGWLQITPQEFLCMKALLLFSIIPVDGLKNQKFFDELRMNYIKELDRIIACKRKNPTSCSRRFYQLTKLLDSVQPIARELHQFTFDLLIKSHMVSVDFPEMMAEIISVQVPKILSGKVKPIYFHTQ
Method: The assay was run on a 96 well plate with each well filled with a total reaction volume 150 μL, of a solution containing 5 pmol androgen receptor LBD (Panvera) or 30 μL of freshly prepared rat cytosol, 0.5 nM [^3H] […] (TED buffer contains 10 mM Tris.HCl pH 7.4, 1 mM sodium molybdate, 1.5 mM EDTA, 1 mM DTT and 10% (v/v) glycerol.)
On day one, the solution containing receptor, tracer and TED buffer was distributed into a 96 well plate. Diluted test compound or control vehicle was then added to individual wells and the plate incubated at 4° C. overnight.
On day two, to each well was then added 20 μL human γ-globulin (ICN 823102), prepared at 25 mg/ml in TE pH 8.0, and 55 μL 40% polyethylene glycol 8000 (JT Baker U222-08), prepared in TE pH 8.0. The plate was incubated at 4° C. for 60 minutes. During incubation, the harvester was rinsed with 10% PEG 8000, prepared in TE pH 8.0, and a GF/C Unifilter-96 was pre-wet with 10% PEG. The binding reaction was filtered, the retentate was washed three times with 10% PEG and dried under vacuum for a couple of minutes, then dried at 50° C. for 5 min and the plate was bottom sealed. Next, 25 μL of Microscint-20 (Packard) was added to the filter wells and the plate was top sealed. The plate wells were then counted on a TopCount (Packard).
Rat Prostate Cytosol Preparation:
Male Sprague Dawley or Wistar rats (Charles River, 200-300 g) were used for each preparation. The day before preparing the cytosol, the rats were castrated using standard surgical procedures.
The rats were euthanized by carbon dioxide asphyxiation. The rat prostates were quickly removed and placed on ice in pre-chilled, pre-weighed 50 mL plastic tubes. No more than five prostates were placed into one tube. The tubes were then weighed and the prostate tissue wet weights calculated.
To the chilled prostate tissue was then added […] of chilled homogenization buffer. The homogenization buffer was freshly prepared by mixing 10 mM Tris.HCl, pH 7.4, 1 mM sodium molybdate, 1.5 mM EDTA, 1 mM dithiothreitol, 10% (v/v) glycerol and 1% protease inhibitor cocktail (Sigma P 8340).
The prostate tissue was homogenized in a cold room using a pre-chilled Polytron PT3000 homogenizer (Brinkmann). Homogenization was performed at a speed setting of 20, three times for 10 sec bursts. The tubes containing the prostate tissue was kept on ice while homogenizing. The homogenate was allowed to rest on ice for 20 sec between bursts.
The homogenate was then placed into pre-chilled 3 mL polycarbonate ultracentrifuge tubes and centrifuged in the TLA-100 rotor of a TL-100 ultracentrifuge for 12 min at 100,000 rpm at 4° C. The resulting supernatant was stored in 1 mL aliquots at −80° C. until needed.
Binding to the androgen receptor was determined according to the protocol described in Example 86 using the above prepared rat cytosol.
% Inhibition was determined by testing dilutions of the test compound (usually duplicates of 10 μM) in the binding assay. Counts per well were measured and percents of inhibition determined. […] Counts per well were measured and IC50s determined by linear regression.

[2] = molecular target: T2, androgen receptor (adenovirus AdEasy+rAR in L929 cells) (Rattus norvegicus, UniProt P15207); experiment: L929 Androgen Receptor Functional Assay, Adenovirus Transduction; type: cell-based; details: L929 agonist testing
T2 construct: expressed in transfected cells
T2 sequence (P15207 1-902): T1 sequence (P15207 1-902)
How it was run: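 L929 cells in phenol red-free, charcoal-stripped serum medium transduced with AdEasy+rAR (moi 1:500) and exposed 48 h at 37 °C to compound alone (agonist mode) or with R1881 (antagonist mode; 2.5 nM as the 2.5× dilution).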

[3] = tested on: testosterone-enhanced ventral prostate and seminal vesicle weights in castrated male Sprague Dawley rats; experiment: Ventral Prostate and Seminal Vesicle Weight In Vivo Assay; set-up: species or system rat; details: immature castrated rats; once daily for five days, usually orally at 40 mg/kg, with testosterone propionate 2 mg/kg s.c.
How it was run: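 Immature (~50 g) castrated Sprague Dawley rats dosed once daily for five days with compound (usually oral, 40 mg/kg, cyclodextrin or methylcellulose vehicle) plus testosterone propionate 2 mg/kg s.c. Wet ventral prostate and seminal vesicle weights taken on day six; activity judged by prostate weight or body-weight-adjusted % inhibition.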

[4] = molecular target: T3, androgen receptor (adenovirus AdEasy+rAR in COS-7 cells) (Rattus norvegicus, UniProt P15207); experiment: COS-7 Whole-Cell Androgen Receptor Binding Assay, Adenovirus Transduction; details: COS binding; 3000 nM unless otherwise noted
T3 construct: expressed in transfected cells
T3 sequence (P15207 1-902): T1 sequence (P15207 1-902)

[5] = rat cytosol, concentration 1000 nM, 1 µM
[6] = rat cytosol, concentration 3000 nM
[7] = rat cytosol, concentration 1000 nM

| SMILES | IC50 ([1]; rat cytosol, read-out: IC50) | active / inactive (inhibition of testosterone-enhanced prostate weight) [3] | inhibition at 1 µM [1, 7] | other results |
| --- | --- | --- | --- | --- |
| COc1cccc(CN2CCC(O)(c3cc4cc([N+](=O)[O-])c(C(F)(F)F)cc4[nH]3)CC2)c1 [compound 38] | 8800 nM | – | – | % Inhibition [1, 5]: 16% |
| CC(C)SC(C)(CO)c1cc2cc([N+](=O)[O-])c(C(F)(F)F)cc2[nH]1 (racemic) [compound 268] | – | inactive | – | % Inhibition [1, 6]: −3.3%; % Activity ([2]; 3000 nM): 9% |
| COc1ccc(CN2CCC(O)(c3cc4cc(Cl)c(C(F)(F)F)cc4[nH]3)CC2)cc1 [compound 35] | 4200 nM | – | -19% | – |
| CC(C)(C)c1ccc(CN2CCC(O)(c3cc4cc(Cl)c(C(F)(F)F)cc4[nH]3)CC2)cc1 [Compound #32] | 43000 nM | – | 34% | – |
| COc1cccc(CN2CCC(O)(c3cc4cc([N+](=O)[O-])c(C(F)(F)F)cc4[nH]3)CC2)c1 [compound 39] | > 6100 nM | – | – | % Inhibition [1, 5]: 6% |
| Cc1ccc(CN2CCC(O)(c3cc4cc(Cl)c(C(F)(F)F)cc4[nH]3)CC2)cc1 [compound 30] | 4100 nM | – | -7.7% | – |
| CC(O)(CS(=O)(=O)Cc1ccccc1)c1cc2cc([N+](=O)[O-])c(C(F)(F)F)cc2[nH]1 (racemic) [compound 162] | – | inactive | – | % Inhibition [1, 6]: 0.69%; % Activity ([2]; 3000 nM): 2% |
| Cc1ccc(CN2CCC(O)(c3cc4cc([N+](=O)[O-])c(C(F)(F)F)cc4[nH]3)CC2)cc1 [Compound #42] | 7100 nM | – | – | % Inhibition ([1]; 1 µM): 23% |
| CC(O)(c1cc2cc([N+](=O)[O-])c(C(F)(F)F)cc2[nH]1)S(=O)(=O)c1ccc(Cl)c(Cl)c1 (racemic) [compound 255] | – | – | – | % Inhibition [1, 7]: 26% |
| Cc1ccc(CN2CCC(O)(c3cc4cc([N+](=O)[O-])c(C(F)(F)F)cc4[nH]3)CC2)cc1 [compound 27] | 3100 nM | – | – | – |
| COc1cccc(CN2CCC(O)(c3cc4cc(Cl)c(C(F)(F)F)cc4[nH]3)CC2)c1 [compound 29] | 4700 nM | – | -1.8% | – |
| OC1(c2cc3cc(Cl)c(C(F)(F)F)cc3[nH]2)CCN(Cc2ccc(Cl)c(Cl)c2)CC1 [compound 36] | – | – | -34% | IC50 ([1]; IC50 (nM)): > 100000 nM |
| CS(=O)(=O)n1c(C2(O)CCN(C(=O)c3ccc(Cl)cc3)CC2)cc2cc(Cl)c(C(F)(F)F)cc21 [compound 24] | – | – | – | % Inhibition [1, 7]: 2% |
| OC1(c2cc3cc(Cl)c(C(F)(F)F)cc3[nH]2)CCN(Cc2ccc(F)cc2)CC1 [compound 28] | 7000 nM | – | -3.4% | – |
| O=[N+]([O-])c1cc2cc(C3(O)CCN(Cc4ccc(Cl)cc4)CC3)[nH]c2cc1C(F)(F)F [compound 40] | 3800 nM | – | – | % Inhibition [1, 5]: −2.5% |
| O=[N+]([O-])c1cc2cc(C3(O)CCN(Cc4ccc(Cl)c(Cl)c4)CC3)[nH]c2cc1C(F)(F)F [compound 43] | 9100 nM | – | 5.8% | – |
| OC1(c2cc3cc(Cl)c(C(F)(F)F)cc3[nH]2)CCN(Cc2ccc(Cl)cc2)CC1 [compound 31] | 4050 nM | – | 20% | – |
| CCSCC(C)(O)c1cc2cc(F)c(C(F)(F)F)cc2[nH]1 (stereo not shown) [compound 159] | – | active | – | inhibition at 3 µM [4]: 90%; % Activity ([2]; 3000 nM): 2% |
| CN(C)c1ccc(S(=O)(=O)CC(C)(O)c2cc3cc(Cl)c(C(F)(F)F)cc3[nH]2)cc1 (racemic) [compound 126] | – | inactive | – | % Inhibition [1, 6]: −30%; % Activity ([2]; 3000 nM): −5% |
| CCS(=O)(=O)C[C@](C)(O)c1cc2cc([N+](=O)[O-])c(C(F)(F)F)cc2[nH]1 [Compound #156, 1-Ethanesulfonyl-2-(5-nitro-6-trifluoromethyl-1H-indol-2-yl)-propan-2-ol] | – | inactive | – | % Inhibition [4]: 52%; inhibition at 3 µM [4]: 42%; % Activity ([2]; 3000 nM): 2% |
| CSCC(C)(O)c1cc2cc([N+](=O)[O-])c(C(F)(F)F)cc2[nH]1 (stereo not shown) [compound 139] | – | active | – | % Inhibition [4]: 97%; inhibition at 3 µM [4]: 94%; % Activity ([2]; 3000 nM, 3 µM): 0% and 1% |
| CCSCC(C)(O)c1cc2cc([N+](=O)[O-])c(C(F)(F)F)cc2n1C (racemic) [compound 165] | – | active | – | % Inhibition [4]: 69%; % Activity ([2]; 3000 nM, 3 µM): 1% |
| CCCS(=O)(=O)CC(C)(O)c1cc2cc([N+](=O)[O-])c(C(F)(F)F)cc2[nH]1 (stereo not shown) [compound 177] | – | active | – | inhibition at 3 µM [4]: 90%; % Activity ([2]; 3000 nM): 2% |
| CCCCSCC(C)(O)c1cc2cc([N+](=O)[O-])c(C(F)(F)F)cc2[nH]1 (stereo not shown) [compound 200] | – | inactive | – | inhibition at 3 µM [4]: 97%; % Activity ([2]; 3000 nM): 1% |
| OC1(c2cc3cc(Cl)c(C(F)(F)F)cc3[nH]2)CCN(Cc2ccc(C(F)(F)F)cc2)CC1 [Compound #33] | 29000 nM | – | 11% | – |
| O=[N+]([O-])c1cc2cc(C3(O)CCN(Cc4ccc(Cl)cc4)CC3)[nH]c2cc1C(F)(F)F [compound 41] | 2300 nM | – | – | % Inhibition [1, 5]: 20% |
| CC(O)(CSCC(F)(F)F)c1cc2cc([N+](=O)[O-])c(C(F)(F)F)cc2[nH]1 (stereo not shown) [compound 171] | – | active | – | % Inhibition [4]: 94%; inhibition at 3 µM [4]: 92%; % Activity ([2]; 3000 nM, 3 µM): 11%; % Activity ([2]; @ 8000 nM): −1 @ 8000 nM % |
| CC(O)(CSCC(F)(F)F)c1cc2cc([N+](=O)[O-])c(C(F)(F)F)cc2[nH]1 (single isomer, unassigned) [compound 202] | – | active | – | % Inhibition [4]: 50%; % Activity ([2]; 3000 nM, 3 µM): 1% |
| CS(=O)(=O)c1ccc(CN2CCC(O)(c3cc4cc(Cl)c(C(F)(F)F)cc4[nH]3)CC2)cc1 [compound 34] | 5700 nM | – | 18% | – |
